Patent EP1428519A2, “5-Lipooxygenase inhibitors in deodorants and antiperspirants” (Henkel Kommanditgesellschaft auf Aktien, priority 2002, dated 2004)
Where a name gives a salt, the structure may show the parent alone.

Molecular target: T1, 5-Lipoxigenase (Homo sapiens, UniProt P09917)
T1 construct: durch Ultraschallbehandlung aufgeschlossen; Größere Zellbestandteile wurden bei 100 000 g abzentrifugiert, wobei 5-Lipoxigenase im Überstand verblieb; endogenous in cells; sonicated; 100 000 g supernatant
T1 sequence (P09917 1-674): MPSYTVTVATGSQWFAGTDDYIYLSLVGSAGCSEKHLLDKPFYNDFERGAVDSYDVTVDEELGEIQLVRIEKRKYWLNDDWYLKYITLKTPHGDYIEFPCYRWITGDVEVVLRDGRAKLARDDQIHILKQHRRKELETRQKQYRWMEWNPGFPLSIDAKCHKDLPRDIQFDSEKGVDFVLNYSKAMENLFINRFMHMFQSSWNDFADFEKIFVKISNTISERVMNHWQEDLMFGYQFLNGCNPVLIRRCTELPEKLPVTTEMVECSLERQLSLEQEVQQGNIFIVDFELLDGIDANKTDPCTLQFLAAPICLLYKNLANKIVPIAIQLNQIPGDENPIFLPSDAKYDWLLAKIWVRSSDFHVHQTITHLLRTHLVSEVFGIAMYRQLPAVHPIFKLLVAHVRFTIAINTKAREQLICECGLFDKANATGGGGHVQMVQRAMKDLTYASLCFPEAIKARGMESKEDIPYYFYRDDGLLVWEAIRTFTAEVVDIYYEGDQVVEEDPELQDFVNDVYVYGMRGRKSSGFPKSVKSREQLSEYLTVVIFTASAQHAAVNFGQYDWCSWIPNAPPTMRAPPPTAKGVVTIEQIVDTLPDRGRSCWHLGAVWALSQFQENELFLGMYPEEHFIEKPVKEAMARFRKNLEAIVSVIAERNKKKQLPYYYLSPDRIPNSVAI
Experiment: 5-lipoxygenase inhibition in vitro (supernatant of differentiated leukaemia cells, leukotrienes quantified by HPLC)
Format: biochemical, menschlichen
Settings: 100 µg raw material as is per ml supernatant; 30 s preincubation at 37° C, 10 min reaction with arachidonic acid; activity without test substance = 100 %; solvent per substance (Ethanol, Wasser or DMSO)
From the text: Die 5-Lipoxigenase wurde aus menschlichen Leukämie-Zelllinien durch Zugabe von Dimethylsulfoxid (DMSO), TGF-β1 (transforming growth factor β1) und Dihydroxyvitamin D3 differenziert und dabei zugleich die 5-Lipoxigenase induziert. Nach 4 Tagen im Differenzierungsmedium wurden die Zellen geerntet, in einem Glucose-haltigen PBS-Puffer aufgenommen und durch Ultraschallbehandlung aufgeschlossen. Größere Zellbestandteile wurden bei 100 000 g abzentrifugiert, wobei 5-Lipoxigenase im Überstand verblieb.
Die Bestimmung der 5-Lipoxigenase-Inhibitionswirkung erfolgte gemäß Werz et al., Naunyn-Schmiedeberg's Arch. Pharmacol., 1997, Vol. 456, 441 - 445.
Dem Überstand aus der 5-Lipoxigenase-Herstellung wurden Adenosintriphosphat (ATP) und die zu testenden Rohstoffe zugesetzt. Im vorliegenden Falle wurden 100 µg Rohstoff, so wie er ist, pro Milliliter Überstand eingesetzt. Als Lösemittel wurden je nach Substanz Wasser, Ethanol, DMSO oder Chloroform verwendet.
Die Ansätze wurden für 30 Sekunden bei 37° C vorinkubiert. Anschließend wurde die 5-Lipoxigenase-Reaktion durch Zusatz von Arachidonsäure gestartet. Nach 10 Minuten Reaktionszeit wurde die Reaktion durch Zugabe von Methanol gestoppt. Die durch die Einwirkung der 5-Lipoxigenase auf Arachidonsäure produzierten Leukotriene wurden mittels HPLC quantifiziert. Die Aktivität von 5-Lipoxigenase ohne Zugabe von Testsubstanz wurde zu 100 % gesetzt und die Aktivität der 5-Lipoxigenase mit Hemmstoff darauf bezogen. In Tabelle 1 ist die Hemmwirkung der einzelnen Testsubstanzen in % angegeben.

Hemmwirkung | Compound
90,3% | CC(C)=CCCC(C)(O)C1CC=C(C)CC1 (stereo not drawn) [α-Bisabolol]
40,4% | O=C(O)CCCCC1CCSS1 (stereo not drawn) [α-Liponsäure, reference compound]

Compound | Hemmwirkung
CC[C@H](CC[C@@H](C)[C@H]1CC[C@H]2[C@@H]3CC=C4C[C@@H](OS(=O)(=O)O)CC[C@]4(C)[C@H]3CC[C@]12C)C(C)C [Phytocohesine, Sodium Beta-Sitosteryl Sulfate] | 62,8%
